Results on 24 compounds are retold here after US7612056B2, “Substituted diaza-spiro-[4.5]-decane derivatives and their use as neurokinin antagonists” (Jenssen Pharmaceutica N.V., priority 2005, dated 2009).

One data set addresses NK1 (Homo sapiens, UniProt P25103). Put plainly: Signal transduction (ST), intracellular Ca++ (FLIPR), NK1. The format is cell-based. Particulars: antagonist, Ca++ transient peak, read-out: pIC50 NK1 (converted). How it is done: This test evaluates in vitro functional NK1 antagonistic activity. For the measurements of intracellular Ca^++ concentrations the cells were grown on 96-well (black wall/transparent bottom) plates from Costar for 2 days until they reached confluence. The cells were loaded with 2 μM Fluo3 in DMEM containing 0.1% BSA and 2.5 mM probenecid for 1 h at 37° C. They were washed 3× with a Krebs buffer (140 mM NaCl, 1 mM MgCl2×6H2O, 5 mM KCl, 10 mM glucose, 5 mM HEPES; 1.25 mM CaCl2; pH 7.4) containing 2.5 mM probenecid and 0.1% BSA (Ca^++-buffer). The cells were preincubated with a concentration range of antagonists for 20 min at RT and Ca^++-signals after addition of the agonists were measured in a Fluorescence Image Plate Reader (FLIPR from Molecular Devices, Crawley, England). The peak of the Ca^++-transient was considered as the relevant signal and the mean values of corresponding wells were analysed as described below.
The sigmoidal dose response curves were analysed by computerised curve-fitting, using the GraphPad Program. The EC50-value of a compound is the effective dose showing 50% of maximal effect. For mean curves the response to the agonist with the highest potency was normalised to 100%. For antagonist responses the IC50-value was calculated using non-linear regression. […]

In the next data set the target is T1, NK3 (Homo sapiens, UniProt P29371).
T1 sequence (P29371 1-465): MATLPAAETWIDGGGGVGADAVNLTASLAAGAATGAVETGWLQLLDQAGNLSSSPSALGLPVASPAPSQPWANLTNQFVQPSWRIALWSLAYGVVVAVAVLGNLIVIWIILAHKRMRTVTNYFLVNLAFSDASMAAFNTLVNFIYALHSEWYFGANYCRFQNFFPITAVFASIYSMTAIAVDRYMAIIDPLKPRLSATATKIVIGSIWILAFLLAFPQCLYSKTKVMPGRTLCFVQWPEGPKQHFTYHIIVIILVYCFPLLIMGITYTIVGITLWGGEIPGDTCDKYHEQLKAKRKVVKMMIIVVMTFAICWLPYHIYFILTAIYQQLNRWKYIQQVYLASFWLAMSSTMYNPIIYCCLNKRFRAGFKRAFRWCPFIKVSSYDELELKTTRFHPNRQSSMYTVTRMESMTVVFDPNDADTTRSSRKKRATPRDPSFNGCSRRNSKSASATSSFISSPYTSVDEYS
As to the kind of experiment: Signal transduction (ST), intracellular Ca++ (FLIPR), NK3. The format is cell-based. Particulars: antagonist, Ca++ transient peak, read-out: pIC50 NK3 (converted).

A further data set addresses T2, NK2 (Homo sapiens, UniProt P21452).
T2 sequence (P21452 1-398): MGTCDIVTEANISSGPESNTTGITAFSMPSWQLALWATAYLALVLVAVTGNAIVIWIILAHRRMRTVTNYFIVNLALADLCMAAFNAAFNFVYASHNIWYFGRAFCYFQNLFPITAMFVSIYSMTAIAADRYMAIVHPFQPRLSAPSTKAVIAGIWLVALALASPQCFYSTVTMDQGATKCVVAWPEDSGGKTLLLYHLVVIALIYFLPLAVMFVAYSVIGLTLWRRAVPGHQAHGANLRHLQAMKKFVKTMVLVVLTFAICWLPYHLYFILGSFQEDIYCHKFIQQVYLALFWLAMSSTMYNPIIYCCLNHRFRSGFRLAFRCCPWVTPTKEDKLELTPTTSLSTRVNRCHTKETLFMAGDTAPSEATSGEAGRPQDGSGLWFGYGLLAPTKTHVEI
Put plainly: Signal transduction (ST), intracellular Ca++ (FLIPR), NK2. In kind it is cell-based. Particulars: antagonist, Ca++ transient peak, read-out: pIC50 NK2 (converted).

Chain of NK1 (P25103 whole entry): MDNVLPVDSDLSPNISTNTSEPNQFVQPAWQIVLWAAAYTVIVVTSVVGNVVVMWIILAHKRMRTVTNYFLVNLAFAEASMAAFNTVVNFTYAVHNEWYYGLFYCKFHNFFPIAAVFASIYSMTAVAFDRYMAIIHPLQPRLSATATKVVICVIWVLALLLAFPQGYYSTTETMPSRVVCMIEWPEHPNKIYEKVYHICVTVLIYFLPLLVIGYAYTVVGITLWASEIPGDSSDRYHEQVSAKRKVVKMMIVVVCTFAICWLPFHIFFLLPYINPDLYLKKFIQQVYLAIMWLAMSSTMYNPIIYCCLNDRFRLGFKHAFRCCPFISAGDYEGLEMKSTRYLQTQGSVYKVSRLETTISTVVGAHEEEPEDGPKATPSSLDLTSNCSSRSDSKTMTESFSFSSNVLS

For the compound `O=C(C1CC1)N1CCC2(CC1)CCN(C1CCN(C(=O)c3cc(C(F)(F)F)cc(C(F)(F)F)c3)C(Cc3ccccc3)C1)C2` (stereo not drawn) [Compound 6], the melting point stood at 160 °C. The IC50 at NK1 was 0.0537 µM. Also, the IC50 at NK3 was > 10 µM.
As to `O=C(c1ccoc1)N1CCC2(CCN(C3CCN(C(=O)c4cc(C(F)(F)F)cc(C(F)(F)F)c4)C(Cc4ccccc4)C3)CC2)C1` (stereo not drawn) [Compound 7], the results for the IC50 on NK1, at NK2 and at NK3 were 0.178 µM, 7.59 µM and 3.31 µM, respectively.
With `O=C(c1ccoc1)N1CCC2(CCN([C@H]3CCN(C(=O)c4cc(C(F)(F)F)cc(C(F)(F)F)c4)[C@H](Cc4ccccc4)C3)CC2)C1` [Compound 8], the IC50 is 0.117 µM at NK1, > 10 µM on NK2 and 0.977 µM at NK3.
Consider `O=C(c1cc(C(F)(F)F)cc(C(F)(F)F)c1)N1CCC(N2CCC3(CC2)CCN(S(=O)(=O)c2cccs2)C3)CC1Cc1ccccc1` (stereo not drawn) [Compound 9], for which the IC50 at NK1 was 0.234 µM; at NK2, 9.55 µM; at NK3 it was > 10 µM.
Regarding `O=C(C1CCOC1)N1CCC2(CCN([C@@H]3CCN(C(=O)c4cc(C(F)(F)F)cc(C(F)(F)F)c4)[C@H](Cc4ccccc4)C3)CC2)C1` (stereo partly drawn) [Compound 11], the IC50 is 0.282 µM on NK1, > 10 µM on NK2 and 6.92 µM at NK3.
Take `O=C(c1ccccc1Cl)N1CCC2(CCN([C@H]3CCN(C(=O)c4cc(C(F)(F)F)cc(C(F)(F)F)c4)[C@H](Cc4ccccc4)C3)CC2)C1` [Compound 13]: the IC50 on NK1 is 0.0759 µM; on NK2 it was 5.13 µM; at NK3, 4.27 µM.
The compound `O=C1CC2(CCN([C@H]3CCN(C(=O)c4cc(C(F)(F)F)cc(C(F)(F)F)c4)[C@H](Cc4ccccc4)C3)CC2)CN1` [Compound 21] came in with a melting point of 152 °C. Further, on NK1, the IC50 is 0.347 µM. Besides, the IC50 at NK2 is > 10 µM. The IC50 on NK3 was > 10 µM.
`O=C1CC2(CCN([C@H]3CCN(C(=O)c4cc(C(F)(F)F)cc(C(F)(F)F)c4)[C@H](Cc4ccccc4)C3)CC2)CN1CC1CC1` [Compound 23]: the IC50 at NK1 was 0.0692 µM; at NK2 it was 4.37 µM; on NK3, > 10 µM.
The like results for `O=C1CC2(CCN([C@@H]3CCN(C(=O)c4cc(C(F)(F)F)cc(C(F)(F)F)c4)[C@H](Cc4ccccc4)C3)CC2)CN1CC1CC1` [Compound 24] were, in that order, 0.126 µM, 2.04 µM and 5.25 µM.
The like results for `O=C1CC2(CCN(C3CCN(C(=O)c4cc(C(F)(F)F)cc(C(F)(F)F)c4)C(Cc4ccccc4)C3)CC2)CN1CC1CCCO1` (stereo not drawn) [Compound 25] were, in that order, 0.0316 µM, 5.5 µM and 6.92 µM.
As to `O=C1CC2(CCN([C@H]3CCN(C(=O)c4cc(C(F)(F)F)cc(C(F)(F)F)c4)[C@H](Cc4ccccc4)C3)CC2)CN1Cc1ccoc1` [Compound 26], the IC50 at NK1 is 0.0537 µM; on NK2 it was 3.98 µM; at NK3 it was > 10 µM.
With `O=C1CC2(CCN([C@@H]3CCN(C(=O)c4cc(C(F)(F)F)cc(C(F)(F)F)c4)[C@H](Cc4ccccc4)C3)CC2)CN1Cc1ccoc1` [Compound 27], the values for the IC50 on NK1, on NK2 and at NK3 were 0.117 µM, 1.91 µM and 8.13 µM, respectively.
The like results for `Cc1ccccc1CN1CC2(CCN([C@H]3CCN(C(=O)c4cc(C(F)(F)F)cc(C(F)(F)F)c4)[C@H](Cc4ccccc4)C3)CC2)CC1=O` [Compound 28] were, in that order, 0.145 µM, 7.59 µM and 10.2 µM.
Consider `O=C1CC2(CCN([C@H]3CCN(C(=O)c4cc(C(F)(F)F)cc(C(F)(F)F)c4)[C@H](Cc4ccccc4)C3)CC2)CN1Cc1ccsc1` [Compound 29], for which the IC50 was 0.102 µM at NK1, 5.25 µM on NK2 and > 10 µM on NK3.
`O=C1CC2(CCN([C@@H]3CCN(C(=O)c4cc(C(F)(F)F)cc(C(F)(F)F)c4)[C@H](Cc4ccccc4)C3)CC2)CN1Cc1ccsc1` [Compound 30]: the IC50 at NK1 was 0.302 µM; at NK2, 0.813 µM; at NK3 it was > 10 µM.
As for `O=C1CC2(CCN([C@@H]3CCN(C(=O)c4cc(C(F)(F)F)cc(C(F)(F)F)c4)[C@H](Cc4ccccc4)C3)CC2)CN1Cc1ccccc1` [Compound 31], the values for the IC50 at NK1, on NK2 and at NK3 were 0.0724 µM, 2.24 µM and 11 µM, respectively.
As to `Cc1ccccc1CN1CC2(CCN([C@@H]3CCN(C(=O)c4cc(C(F)(F)F)cc(C(F)(F)F)c4)[C@H](Cc4ccccc4)C3)CC2)CC1=O` [Compound 32], the IC50 at NK1 was 0.269 µM; at NK2, 10.5 µM; on NK3, 8.32 µM.
`O=C1CC2(CCN([C@@H]3CCN(C(=O)c4cc(C(F)(F)F)cc(C(F)(F)F)c4)[C@H](Cc4ccccc4)C3)CC2)CN1Cc1ccccc1F` [Compound 33]: the results for the IC50 on NK1, on NK2 and at NK3 were 0.191 µM, 9.55 µM and 9.12 µM, respectively.
The like results for `O=C1CC2(CCN([C@H]3CCN(C(=O)c4cc(C(F)(F)F)cc(C(F)(F)F)c4)[C@H](Cc4ccccc4)C3)CC2)CN1Cc1ccccc1Cl` [Compound 34] were, in that order, 0.0692 µM, 4.47 µM and > 10 µM.
The like results for `O=C1CC2(CCN([C@@H]3CCN(C(=O)c4cc(C(F)(F)F)cc(C(F)(F)F)c4)[C@H](Cc4ccccc4)C3)CC2)CN1Cc1ccccc1Cl` [Compound 35] were, in that order, 0.182 µM, 9.12 µM and 9.55 µM.
The like results for `O=C(C1CC1)N1CC2(CCN([C@H]3CCN(C(=O)c4cc(C(F)(F)F)cc(C(F)(F)F)c4)[C@H](Cc4ccccc4)C3)CC2)c2ccccc21` [Compound 37] were, in that order, 0.302 µM, > 10 µM and 6.76 µM.
Consider `CS(=O)(=O)N1CC2(CCN([C@H]3CCN(C(=O)c4cc(C(F)(F)F)cc(C(F)(F)F)c4)[C@H](Cc4ccccc4)C3)CC2)c2ccccc21` [Compound 39], for which the figures for the IC50 on NK1, at NK2 and on NK3 were 0.135 µM, > 10 µM and > 10 µM, respectively.
Turning to `O=C(c1cc(C(F)(F)F)cc(C(F)(F)F)c1)N1CC[C@H](N2CCCC3(CCCN3C(=O)C3CC3)C2)C[C@H]1Cc1ccccc1` (stereo partly drawn) [Compound 46], the IC50 was 0.204 µM on NK1 and 2.04 µM on NK2.
Regarding `O=C(c1cc(C(F)(F)F)cc(C(F)(F)F)c1)N1CC[C@H](N2CCCC3(CCCN3C(=O)c3ccoc3)C2)C[C@H]1Cc1ccccc1` (stereo partly drawn) [Compound 48], the IC50 on NK1 was 0.234 µM; on NK2 it was 3.63 µM; on NK3, > 10 µM.

Broadly, the melting point is the temperature, or range, at which the solid turns liquid.
